# Results taken from ChEMBL document CHEMBL5325425, “Design, synthesis and biological evaluation of pyrrolopyrimidine derivatives as novel and selective positive modulator of the small conductance Ca2+-activated K+ channels” (Eur J Med Chem, 2023).
# What was measured:
# [1] = Activation of rat SK2 variant a transfected in human tsA201 cells coexpressing CaM/GFP in presence of Ca2+ by […]; assay type: cell-based
# HUVEC = test: Cytotoxicity against HUVEC cells assessed as cell viability at 0.1 to 10000 nM incubated for 24 hrs by CCK8 assay; assay type: toxicity, cell-based; settings: human, 10 µM, dose 0.1-10000 nM
# [2] = Apparent permeability across apical to basal side in human BMEC cells at 10 ug/ml incubated for 24 hrs by BBB assay; assay type: ADME, cell-based; settings: dose 10 µg/ml
# [3] = AUC (0 to t) in fasted Sprague-Dawley rat at 100 mg/kg, po measured upto 12 hrs by LC-MS/MS analysis; assay type: ADME, organism-based; parameters: time < 12 hrs, dose 100 mg/kg, route po; settings: in vivo
# [4] = AUC (0 to infinity) in fasted Sprague-Dawley rat at 100 mg/kg, po measured upto 12 hrs by LC-MS/MS analysis; assay type: ADME, organism-based; parameters: time < 12 hrs, dose 100 mg/kg, route po; settings: in vivo
# [5] = MRT in fasted Sprague-Dawley rat at 100 mg/kg, po measured upto 12 hrs by LC-MS/MS analysis; assay type: ADME, organism-based; settings: in vivo
# [6] = Half life in fasted Sprague-Dawley rat at 100 mg/kg, po measured upto 12 hrs by LC-MS/MS analysis; assay type: ADME, organism-based; settings: in vivo
# [7] = Tmax in fasted Sprague-Dawley rat at 100 mg/kg, po measured upto 12 hrs by LC-MS/MS analysis; assay type: ADME, organism-based; settings: in vivo
# [8] = Cmax in fasted Sprague-Dawley rat at 100 mg/kg, po measured upto 12 hrs by LC-MS/MS analysis; assay type: ADME, organism-based; parameters: time < 12 hrs, dose 100 mg/kg, route po; settings: in vivo
# [9] = Apparent volume of distribution during terminal phase in fasted Sprague-Dawley rat at 100 mg/kg, po measured upto 12 hrs by LC-MS/MS analysis; assay type: ADME, organism-based; settings: in vivo, read-out: Vz/F
# [10] = Apparent oral clearance in fasted Sprague-Dawley rat at 100 mg/kg, po measured upto 12 hrs by LC-MS/MS analysis; assay type: ADME, organism-based; settings: in vivo
# [11] = Oral bioavailability in fasted Sprague-Dawley rat at 100 mg/kg measured upto 12 hrs by LC-MS/MS analysis; assay type: ADME, organism-based; settings: in vivo
# [12] = AUC (0 to t) in fasted Sprague-Dawley rat at 2 mg/kg, iv measured upto 12 hrs by LC-MS/MS analysis; assay type: ADME, organism-based; parameters: dose 2 mg/kg, time < 12 hrs, route iv; settings: in vivo
# [13] = AUC (0 to infinity) in fasted Sprague-Dawley rat at 2 mg/kg, iv measured upto 12 hrs by LC-MS/MS analysis; assay type: ADME, organism-based; parameters: time < 12 hrs, dose 2 mg/kg, route iv; settings: in vivo
# [14] = MRT in fasted Sprague-Dawley rat at 2 mg/kg, iv measured upto 12 hrs by LC-MS/MS analysis; assay type: ADME, organism-based; settings: in vivo
# [15] = Half life in fasted Sprague-Dawley rat at 2 mg/kg, iv measured upto 12 hrs by LC-MS/MS analysis; assay type: ADME, organism-based; settings: in vivo
# [16] = Cmax in fasted Sprague-Dawley rat at 2 mg/kg, iv measured upto 12 hrs by LC-MS/MS analysis; assay type: ADME, organism-based; parameters: dose 2 mg/kg, time < 12 hrs, route iv; settings: in vivo
# [17] = Apparent volume of distribution during terminal phase in fasted Sprague-Dawley rat at 2 mg/kg, iv measured upto 12 hrs by LC-MS/MS analysis; assay type: ADME, organism-based; settings: in vivo
# [18] = Apparent oral clearance in fasted Sprague-Dawley rat at 2 mg/kg, iv measured upto 12 hrs by LC-MS/MS analysis; assay type: ADME, organism-based; settings: in vivo
# [19] = target: T1, Small conductance calcium-activated potassium channel protein 1 (Homo sapiens, UniProt Q92952); test: Positive modulation of SK1 in HEK293 cells in presence of Ca2+ by patch-clamp method; assay type: cell-based
# T1 sequence (Q92952 whole entry): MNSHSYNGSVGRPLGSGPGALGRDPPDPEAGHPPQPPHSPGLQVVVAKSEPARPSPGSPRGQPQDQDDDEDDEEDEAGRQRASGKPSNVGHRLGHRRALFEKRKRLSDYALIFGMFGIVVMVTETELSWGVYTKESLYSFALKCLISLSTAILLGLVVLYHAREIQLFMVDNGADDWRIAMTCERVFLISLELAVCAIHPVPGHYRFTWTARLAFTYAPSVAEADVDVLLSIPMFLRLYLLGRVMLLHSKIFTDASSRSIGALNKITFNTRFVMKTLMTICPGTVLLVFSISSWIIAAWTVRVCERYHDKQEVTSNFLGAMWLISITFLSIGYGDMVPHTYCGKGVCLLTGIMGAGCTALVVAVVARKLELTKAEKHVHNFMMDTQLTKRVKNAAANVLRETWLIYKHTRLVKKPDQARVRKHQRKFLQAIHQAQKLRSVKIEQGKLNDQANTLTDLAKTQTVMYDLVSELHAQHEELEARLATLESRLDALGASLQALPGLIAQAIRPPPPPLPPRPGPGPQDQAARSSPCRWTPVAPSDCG
# [20] = target: T2, Small conductance calcium-activated potassium channel protein 2 (Homo sapiens, UniProt Q9H2S1); test: Positive modulation of SK2 in HEK293 cells in presence of Ca2+ by patch-clamp method; assay type: cell-based
# T2 sequence (Q9H2S1 whole entry): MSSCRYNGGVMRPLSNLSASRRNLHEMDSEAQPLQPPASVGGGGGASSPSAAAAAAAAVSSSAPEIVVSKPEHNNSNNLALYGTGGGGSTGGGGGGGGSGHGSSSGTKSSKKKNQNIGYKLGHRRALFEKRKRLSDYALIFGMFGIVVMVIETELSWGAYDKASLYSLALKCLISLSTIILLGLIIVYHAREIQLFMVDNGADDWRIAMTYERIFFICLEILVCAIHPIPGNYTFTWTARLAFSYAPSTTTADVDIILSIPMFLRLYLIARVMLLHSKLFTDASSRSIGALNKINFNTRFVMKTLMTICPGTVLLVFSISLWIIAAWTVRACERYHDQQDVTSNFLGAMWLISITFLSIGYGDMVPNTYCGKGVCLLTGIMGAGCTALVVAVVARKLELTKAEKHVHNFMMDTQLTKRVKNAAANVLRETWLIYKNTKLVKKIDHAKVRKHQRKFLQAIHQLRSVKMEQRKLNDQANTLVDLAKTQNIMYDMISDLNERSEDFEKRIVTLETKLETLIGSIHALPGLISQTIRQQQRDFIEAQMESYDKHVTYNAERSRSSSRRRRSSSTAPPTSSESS
# [21] = target: T1, Small conductance calcium-activated potassium channel protein 1; test: Positive modulation of SK1 (unknown origin)
# [22] = target: T2, Small conductance calcium-activated potassium channel protein 2; test: Positive modulation of SK2 (unknown origin)
# [23] = target: Small conductance calcium-activated potassium channel protein 3 (Homo sapiens, UniProt Q9UGI6); test: Positive modulation of SK3 (unknown origin)
# Chain of Small conductance calcium-activated potassium channel protein 3 (Q9UGI6 whole entry): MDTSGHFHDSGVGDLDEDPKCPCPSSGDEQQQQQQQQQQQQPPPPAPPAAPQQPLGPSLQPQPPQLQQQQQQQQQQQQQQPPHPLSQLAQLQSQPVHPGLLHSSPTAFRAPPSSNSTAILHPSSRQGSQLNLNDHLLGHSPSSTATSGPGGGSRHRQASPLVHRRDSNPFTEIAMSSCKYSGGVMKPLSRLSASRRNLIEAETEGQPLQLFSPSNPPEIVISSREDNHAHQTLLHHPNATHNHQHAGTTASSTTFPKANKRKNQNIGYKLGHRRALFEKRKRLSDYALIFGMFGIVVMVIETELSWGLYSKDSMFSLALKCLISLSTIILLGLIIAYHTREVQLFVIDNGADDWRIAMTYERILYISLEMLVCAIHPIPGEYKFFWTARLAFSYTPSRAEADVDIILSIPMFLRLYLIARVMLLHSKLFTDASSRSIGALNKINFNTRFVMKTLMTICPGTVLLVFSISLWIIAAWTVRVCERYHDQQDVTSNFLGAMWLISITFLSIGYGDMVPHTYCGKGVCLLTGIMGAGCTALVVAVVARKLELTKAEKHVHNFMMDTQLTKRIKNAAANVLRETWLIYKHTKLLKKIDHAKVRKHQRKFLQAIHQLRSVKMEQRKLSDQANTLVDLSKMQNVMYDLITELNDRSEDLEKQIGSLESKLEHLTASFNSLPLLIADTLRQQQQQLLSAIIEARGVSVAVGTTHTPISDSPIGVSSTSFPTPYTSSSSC
compound,measurement,setting,value
Cc1cc(C)n(-c2nc(Nc3cccc([N+](=O)[O-])c3)c3ccn(C)c3n2)n1,EC50,[1],5.73 µM
Cc1cc(C)n(-c2nc(NC3CCCCC3)c3ccsc3n2)n1,EC50,[1],> 100 µM
Cc1cc(C)n(-c2nc(N(C)Cc3ccccc3)c3ccn(C)c3n2)n1,EC50,[1],19.1 µM
Cc1cc(C)n(-c2nc(Nc3ccccc3)c3ccn(C)c3n2)n1,EC50,[1],4.31 µM
Cc1ccn(-c2nc(Nc3ccc(Cl)c(C(F)(F)F)c3)c3ccn(C)c3n2)n1,EC50,[1],0.5 µM
Cc1cccc(Nc2nc(-n3nc(C)cc3C)nc3ccn(C)c23)c1,EC50,[1],7.71 µM
Cc1cc(C)n(-c2nc(Nc3cccc(Br)c3)c3ccn(C)c3n2)n1,EC50,[1],0.73 µM
same,Activity,HUVEC,Non-Toxic
same,"Papp A→B at 24 h, 10 ug/ml",[2],3.23 ×10⁻⁶ cm/s
same,AUC(0-t) at 12 h,[3]; Sprague-Dawley,2500 ng·h/mL
same,AUC(0-inf),[4],2510 ng·h/mL
same,MRT,[5],3.22 h
same,half-life,[6],1.25 h
same,Tmax,[7],2.67 h
same,Cmax,[8],662 ng/mL
same,Vd/F,[9],92.9 L/kg
same,CL/F,"[10]; Sprague-Dawley, read-out: CLz/F (converted)",813 mL/min/kg
same,bioavailability,[11]; Sprague-Dawley,4.03%
same,AUC(0-t) at 12 h,[12],1360 ng·h/mL
same,AUC(0-inf),[13]; Sprague-Dawley,1370 ng·h/mL
same,MRT,[14],1.5 h
same,half-life,[15],1.97 h
same,Cmax,[16],1620 ng/mL
same,Vz/F,[17],4.791 L/kg
same,CLz/F,[18],26.8 mL/min/kg
Cc1cc(C)n(-c2nc(Nc3ccc(Cl)cc3)c3ccn(C)c3n2)n1,EC50,[1],3.5 µM
CCc1ccc(Nc2nc(-n3nc(C)cc3C)nc3sccc23)cc1,EC50,[1],> 100 µM
Cc1cc(C)n(-c2nc(Nc3ccc(Br)cc3)c3ccn(C)c3n2)n1,EC50,[1],1.94 µM
COc1ccc(Nc2nc(-n3nc(C)cc3C)nc3c2ccn3C)cc1,EC50,[1],13.7 µM
Cc1ccn(-c2nc(Nc3cccc(Br)c3)c3ccn(C)c3n2)n1,EC50,[1],0.48 µM
Cc1cc(C)n(-c2nc(Nc3ccccc3)c3ccsc3n2)n1,EC50,[1],8.34 µM
Cc1ccn(-c2nc(Nc3cccc(C(F)(F)F)c3)c3ccn(C)c3n2)n1,EC50,[1],6.52 µM
Cc1cc(C)n(-c2nc(Nc3ccc(F)cc3)c3ccn(C)c3n2)n1,EC50,[1],3.41 µM
Cc1cc(C)n(-c2nc(Nc3ccc(Br)cc3)c3ccsc3n2)n1,EC50,[1],> 100 µM
CCc1ccc(Nc2nc(-n3nc(C)cc3C)nc3c2ccn3C)cc1,EC50,[1],> 100 µM
Cc1cc(C)n(-c2nc(Nc3ccc(Cl)c(C(F)(F)F)c3)c3c(ccn3C)n2)n1,EC50,[1],29.8 µM
Cc1cc(C)n(-c2nc(Nc3cccc(C(C)C)c3)c3c(ccn3C)n2)n1,EC50,[1],2.97 µM
COc1ccc(Nc2nc(-n3nc(C)cc3C)nc3sccc23)cc1,EC50,[1],> 100 µM
Cc1cc(C)n(-c2nc(Nc3ccc(Cl)c(C(F)(F)F)c3)c3ccn(C)c3n2)n1,EC50,[1],1.2 µM
Cc1cc(C)n(-c2nc(Nc3ccc(F)c(Cl)c3)c3ccn(C)c3n2)n1,EC50,[1],1.79 µM
Cc1cc(C)n(-c2nc(Nc3ccc(Cl)cc3)c3ncn(C)c3n2)n1,EC50,[19],> 100 µM
same,EC50,[20],1.8 µM
same,"Papp A→B at 24 h, 10 ug/ml",[2],2.94 ×10⁻⁶ cm/s
Cc1cc(C)n(-c2nc(Nc3ccc(C(C)C)cc3)c3ccn(C)c3n2)n1,EC50,[1],3.81 µM
Cc1cc(C)n(-c2nc(Nc3cccc(C#N)c3)c3ccn(C)c3n2)n1,EC50,[1],4.08 µM
Cc1cc(C)n(-c2nc(Nc3ccc(Cl)cc3)c3ccsc3n2)n1,EC50,[1],> 100 µM
Cc1cc(C)n(-c2nc(Nc3ccc(C(C)C)cc3)c3ccsc3n2)n1,EC50,[1],> 100 µM
Cc1ccn(-c2nc(Nc3ccc(F)cc3)c3ccn(C)c3n2)n1,Activity,HUVEC,Non-Toxic
same,"Papp A→B at 24 h, 10 ug/ml",[2],3.07 ×10⁻⁶ cm/s
same,AUCt,[3]; 12 h,2427.989 ng·h/mL
same,MRT,[5],3.37 h
same,half-life,[6],1.43 h
same,Tmax,[7],2.67 h
same,Cmax,[8],488 ng/mL
same,Vd/F,[9],86.7 L/kg
same,CLz/F,"[10]; po, 100 mg/kg, 12 h",695.27 mL/min/kg
same,F,"[11]; po, 100 mg/kg, 12 h",23.6%
same,AUC(0-t) at 12 h,[12],1110 ng·h/mL
same,AUC,[13]; 12 h,1168.28 ng·h/mL
same,MRT,[14],1.51 h
same,half-life,[15],2.63 h
same,Cmax,[16],1680 ng/mL
same,Vz/F,[17],6.111 L/kg
same,CLz/F,[18],31.72 mL/min/kg
CCc1ccc(Nc2nc(-n3nc(C)cc3C)nc3ccn(C)c23)cc1,EC50,[1],3.65 µM
O=C1Nc2c(ccc(Cl)c2Cl)C1=NO,EC50,[19],0.6 µM
same,EC50,[20],0.8 µM
Cc1cc(C)n(-c2nc(Nc3ccc(F)cc3)c3ccsc3n2)n1,EC50,[1],6.78 µM
Cc1cc(C)n(-c2nc(Nc3ccccc3)c3c(ccn3C)n2)n1,EC50,[1],8.43 µM
CCC(CC)Nc1nc(-n2nc(C)cc2C)nc2sccc12,EC50,[1],> 100 µM
Cc1cccc(Nc2nc(-n3nc(C)cc3C)nc3c2ccn3C)c1,EC50,[1],6.54 µM
Cc1cc(C)n(-c2nc(NC3CCCCC3)c3ccn(C)c3n2)n1,EC50,[1],2.28 µM
Cc1ccc(Nc2nc(-n3nc(C)cc3C)nc3sccc23)cc1,EC50,[1],> 100 µM
Cc1cc(C)n(-c2nc(Nc3ccc(I)cc3)c3ccsc3n2)n1,EC50,[1],> 100 µM
Cc1cc(C)n(-c2nc(Nc3cccc(Br)c3)c3c(ccn3C)n2)n1,EC50,[1],1.73 µM
Cc1cc(C)n(-c2nc(Nc3cccc(C(F)(F)F)c3)c3c(ccn3C)n2)n1,EC50,[1],20.4 µM
Cc1cc(C)n(-c2nc(Nc3cccc(C(F)(F)F)c3)c3ccn(C)c3n2)n1,EC50,[1],1.6 µM
Cc1cc(NC2CCCCC2)nc(-n2nc(C)cc2C)n1,EC50,[21],> 100 µM
same,EC50,[22],14 µM
same,EC50,[23],5.6 µM
Cc1ccc(Nc2nc(-n3nc(C)cc3C)nc3c2ccn3C)cc1,EC50,[1],3.1 µM
